Read-outs that look alike come from different tables or passages of the source. Values belong to the compound of their own block, whether it stands above or below them. Residues, ends and D or L forms follow the SMILES beside them.
Assays:
mesenchymal cell = settings: in solution; intrinsically and synergistically with growth factors, especially PDGF-BB; cited from earlier work
[1] = test system: adult human dermal fibroblasts (AHDF); settings: oxidative and cytokine stress and/or nutrient withdrawal, in the presence of PDGF-BB; cited from earlier work
burn injury [2] = settings: rat burn model; cited from earlier work
burn injury [3] = settings: cited from earlier work
porcine burns = test: porcine vertical injury progression burn model, wound closure by H&E histology; assay type: in vivo, pig; settings: for percent wounds closed (100% re-epithelialization) at 14 d post-burn: compiled data
Protocol: For a pathobiology proof-of-principle study we used a validated porcine vertical injury progression burn model (Singer A J, Hirth D, McClain S A, Crawford L, Lin F, and Clark R A. Validation of a vertical progression porcine burn model. J Burn Care Res. 2011; 32(6):638-46). In short, while under general anaesthesia, twenty burns were created on the dorsal skin of four outbred female Yorkshire pigs (˜25 kg) using a 2.5×2.5×7.5 cm, 150 gram aluminum bar equilibrated in an 80° C. water bath and applied for 20 s. The application of the 80° C. aluminum bar caused burn injury a little beyond mid-dermis but often progressed to full-thickness within 3-7 days. All burns were treated with petrolatum, and protected with Tegaderm. In some pigs, a fibronectin (FN)-derived peptide (P12) (SEQ ID NO:1) was infused over 30 min at 1, 2, and 4 h post-burn using doses of 0.003, 0.01 or 0.03 mg/kg. The infused P12 peptide (SEQ ID NO:1) was cyclized (cP12) (SEQ ID NO:2) to prevent exopeptidase digestion from amino- and carboxy-peptidases, which are common in the blood and skin.
Tissue specimens taken at 14 days after a 30 min infusion of cP12 (SEQ ID NO:2) doses at 0.003, 0.01, 0.03 or 0.1 mg/kg, where infusions began at 1, 4, 8, 12 and 24 h post-burn, have been fixed, stained with hematoxylin and eosin (H&E), and determined whether the surface of the wound was 100% re-epithelialized, i.e. wound closure obtained. The percent wounds totally re-epithelialized at each cP12 (SEQ ID NO:2) dose and each post-burn time of onset of a 30 min infusion are recorded in Table 1. The number of pigs used for each dose and time is denoted in Table 1 by parentheses. Each pig while under general anesthesia had 20 burn wounds administered on the back by a 2.5×2.5 aluminum bar heated to 80° C. and applied to the skin for 20 sec.
The effect of cP12 (SEQ ID NO:2) doses at 0.003, 0.01, 0.03 or 0.1 mg/kg at 4 h post-burn 30 min-infusion on percent wounds closed at 14d post-burn the 5 experiments performed under these conditions are shown in Table 2. The dates indicate the onset on each experiment, i.e. the date the pigs receive burns.

[4] = anaphylactoid response with 30 min infusion in pig models; assay type: in vivo
Protocol: Depending on the animal type, cP12 (SEQ ID NO:2) (or linear P12. SEQ ID NO:1) can induce an anaphylactoid response at 2.5 to 10 mg/kg given as an iv bolus or even a rapid infusion. This reaction is less likely with a slower infusion.

Compound: P12: 14-residue fibronectin fragment PSHISKYILRWRPK, cryptic within fibronectin's first type III repeat (FNIII1) (a 14-residue peptide that is cryptic within the immunoglobulin sandwich type of beta-pleated sheet of fibronectin′s first type III repeat)
mesenchymal cell growth, proliferation and migration (mesenchymal cell): promotes mesenchymal cell growth, proliferation and migration
protection from cell death [1]: protects
burn injury progression (burn injury [2]): limits burn injury progression
burn injury progression (burn injury [3]; porcine burn model): limits burn injury progression
scarring (burn injury [3]; vertical burn injury progression pig model): mitigates scarring

anaphylactoid response [4]: avoid any anaphylacoid response
Compound: CC[C@H](C)[C@@H]1NC(=O)[C@H](Cc2ccc(O)cc2)NC(=O)[C@H](CCCCN)NC(=O)[C@H](CO)NC(=O)[C@H]([C@@H](C)CC)NC(=O)[C@H](Cc2c[nH]cn2)NC(=O)[C@H](CO)NC(=O)[C@@H]2CCCN2C(=O)[C@H](CCCCN)NC(=O)[C@@H]2CCCN2C(=O)[C@H](CCCNC(=N)N)NC(=O)[C@H](Cc2c[nH]c3ccccc23)NC(=O)[C@H](CCCNC(=N)N)NC(=O)[C@H](CC(C)C)NC1=O [cP12] (HELM PEPTIDE1{H.I.S.K.Y.I.L.R.W.R.P.K.P.S}$PEPTIDE1,PEPTIDE1,1:R1-14:R2$$$V2.0)
percent wounds closed (100% re-epithelialization) at 14 d post-burn (porcine burns; 0.003 mg/kg, 30 min i.v. infusion begun 1 h post-burn): 17 (5) percent
percent wounds closed (100% re-epithelialization) at 14 d post-burn (porcine burns; 0.003 mg/kg, 30 min i.v. infusion begun 4 h post-burn): 37 (3) percent
percent wounds closed (100% re-epithelialization) at 14 d post-burn (porcine burns; 0.01 mg/kg, 30 min i.v. infusion begun 1 h post-burn): 28 (8) percent
percent wounds closed (100% re-epithelialization) at 14 d post-burn (porcine burns; 0.01 mg/kg, 30 min i.v. infusion begun 4 h post-burn): 65 (5) percent
percent wounds closed (100% re-epithelialization) at 14 d post-burn (porcine burns; 0.01 mg/kg, 30 min i.v. infusion begun 8 h post-burn): 34 (5) percent
percent wounds closed (100% re-epithelialization) at 14 d post-burn (porcine burns; 0.01 mg/kg, 30 min i.v. infusion begun 12 h post-burn): 40 (3) percent
percent wounds closed (100% re-epithelialization) at 14 d post-burn (porcine burns; 0.01 mg/kg, 30 min i.v. infusion begun 24 h post-burn): 40 (3) percent
percent wounds closed (100% re-epithelialization) at 14 d post-burn (porcine burns; 0.03 mg/kg, 30 min i.v. infusion begun 1 h post-burn): 8 (8) percent
percent wounds closed (100% re-epithelialization) at 14 d post-burn (porcine burns; 0.03 mg/kg, 30 min i.v. infusion begun 4 h post-burn): 25 (3) percent
percent wounds closed (100% re-epithelialization) at 14 d post-burn (porcine burns; 0.1 mg/kg, 30 min i.v. infusion begun 1 h post-burn): 25 (5) percent
percent wounds closed (100% re-epithelialization) at 14 d post-burn (porcine burns; 0.1 mg/kg, 30 min i.v. infusion begun 4 h post-burn): 50 (2) percent
percent wounds closed (100% re-epithelialization) at 14 d post-burn (porcine burns; 0.1 mg/kg, 30 min i.v. infusion begun 8 h post-burn): 28 (5) percent
percent wounds closed (100% re-epithelialization) at 14 d post-burn (porcine burns; 0.1 mg/kg, 30 min i.v. infusion begun 12 h post-burn): 25 (3) percent
percent wounds closed (100% re-epithelialization) at 14 d post-burn (porcine burns; 0.1 mg/kg, 30 min i.v. infusion begun 24 h post-burn): 17 (3) percent
effectiveness of i.v. treatment by time of administration after wounding (porcine burns; administered 2 to 6 hours after wounding versus one hour or 8 to 12 hours after wounding): more effective
